Among the data in PubChem BioAssay (NCI) are TGI and GI50 values, retold here.

What all share (experiment): NCI-60 cell line screen, 48 h
In test [1] the test system is A549 NSCLC.
Test [2] has as its system SF-539 CNS.
Test [3] relates to PC-3 prostate.
Test [4] relates to MDA-MB-435.
The test system of test [5] is CCRF-CEM leukemia.
Test [6] relates to EKVX NSCLC.
Test [7] deals with TK-10 renal.
The test system of test [8] is OVCAR-8 ovarian.
The subject of test [9] is UACC-257 melanoma.
Test [10] concerns T-47D breast.

Structures are written as SMILES.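 Protocol summary: plate cells (96-well), add compound at 5 concentrations, incubate 48 h, interpolate endpoints linearly. GI50 is the concentration that inhibits growth by half. The concentration for full growth arrest is given as TGI.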

As for `CN(NC(=O)/C(=C/c1ccc(O)cc1)NC(=O)c1ccccc1)c1ccnc2cc(Cl)ccc12`, the TGI in test [1] turned out to be 38.4 µM; in test [2], 43.3 µM; in test [3], 32.7 µM; in test [4], 32.3 µM; in [5], 61.5 µM; in [6], 42.9 µM. Further, the TGI was 30 µM in test [7], 47 µM in [8], 33.9 µM in [9] and 45.6 µM in test [10].
As for `O=C1Cc2c(-c3ccc(Cl)cc3)cc(-c3ccccc3)nc2-c2ccccc2N1`, the TGI is 23.2 µM in test [1]; 25.4 µM in test [2]; > 100 µM in test [3]; > 57.1 µM in test [4]; > 63.3 µM in test [5]; > 56.8 µM in [6]. Also, the TGI in [7] was 21.3 µM; in [8], 11.6 µM; in [9], > 100 µM; in test [10], 12.9 µM.
With `Cc1c2c(n3c(nc4ccccc43)c1C#N)SCC2`, the TGI in [1], in test [2], in test [3], in [4], in [5] and in [6] was > 10 µM throughout. The TGI in [7], in test [8], in test [9] and in test [10] was > 10 µM in each case.
Turning to `CCOC(=O)c1ccc(-c2cc(C)[nH]n2)[nH]1`, the TGI in test [1], in test [2], in test [3], in [4], in [5] and in [6] was > 100 µM each time. Moreover, the TGI in test [7], in test [8], in test [9] and in [10] was > 100 µM in each case.
On to `COc1cc2c(cc1OCCCC(=O)Nc1cc(C(=O)Nc3cc(C(=O)Nc4cc(C(=O)NCCCN(C)C)n(C)c4)n(C)c3)n(C)c1)N=C[C@@H]1CCCN1C2=O`, for which the TGI in test [1] was 36.1 µM; in test [2] it was 8.72 µM; in test [3] it was 6 µM; in test [4], 3.48 µM; in test [5], > 100 µM; in test [6], 7.57 µM. Besides, the TGI is 3.49 µM in test [7], 3.21 µM in test [8], 4.09 µM in test [9] and 4 µM in test [10].
Take `CCCCC1(N=[N+]=[N-])C(=O)c2cccc3c2N(CCC3)C1=O` (stereo not given): the TGI in test [1], in test [2], in test [3], in [4], in test [5] and in test [6] was > 100 µM in each case. Besides, the TGI in test [7], in test [8], in [9] and in test [10] was > 100 µM each time.
With `COC12C=C/C(=C(/C(=O)OCc3ccncn3)C(=O)CCCCCCCCC3(OC)C=C/C(=C(/C(=O)OCc4ccncn4)C(=O)CCCCCCCC1)O3)O2`, the GI50 in [1] was 0.363 µM; in [2], 0.354 µM; in test [3], 0.305 µM; in test [4], 0.194 µM; in test [5], 0.251 µM; in test [6], 0.35 µM. The GI50 in test [7] is 0.395 µM; in [8] it was 0.331 µM; in test [9], 0.261 µM; in test [10], 0.28 µM. The TGI in [1] was 1.49 µM; in [2], 2.66 µM; in test [3], 1.09 µM; in test [4], 0.405 µM; in [5], 1.55 µM; in [6], 2.34 µM. The TGI stood at 2.4 µM in test [7], 14.9 µM in test [8], 0.882 µM in test [9] and 25.7 µM in test [10].
On to `COCn1c(C)c(C)c2c(=O)oc(=O)[nH]c21`, for which the TGI in test [1], in test [2], in test [3], in test [4], in [5] and in test [6] was > 100 µM in each case. Also, the TGI in test [7], in [8], in [9] and in [10] was > 100 µM in each case.
`CN(Cc1c2ccccc2cc2ccccc12)S(=O)(=O)c1ccc(-c2c3nc(c(-c4ccc(S(=O)(=O)N(C)Cc5c6ccccc6cc6ccccc56)cc4)c4ccc([nH]4)c(-c4ccc(S(=O)(=O)N(C)Cc5c6ccccc6cc6ccccc56)cc4)c4nc(c(-c5ccc(S(=O)(=O)N(C)Cc6c7ccccc7cc7ccccc67)cc5)c5ccc2[nH]5)C=C4)C=C3)cc1`: the TGI in [1], in [2], in [3], in test [4], in [5] and in test [6] was > 100 µM throughout. In addition, the TGI in test [7], in test [8], in [9] and in [10] was > 100 µM each time.
Regarding `Cc1cc(NS(=O)(=O)c2ccc(NC(=O)c3ccc4nc5ccccc5c(Nc5ccc(S(=O)(=O)N=C(N)N)cc5)c4c3)cc2)no1`, the TGI in test [1] came out at 31.4 µM; in [2] it was 44.9 µM; in test [3], 39.3 µM; in test [4], 35.3 µM; in test [5] it was 34.3 µM; in test [6] it was 30 µM. The TGI is 41.4 µM in [7], 32.9 µM in test [8], 67.1 µM in test [9] and 34.4 µM in test [10].
Regarding `NNC(=O)CC(=O)Nc1ccc(Cl)cc1`, the TGI in [1], in [2], in [3], in test [4], in test [5] and in [6] was > 100 µM throughout. Also, the TGI in test [7], in test [8], in test [9] and in test [10] was > 100 µM in each case.
